Data: patent publication US11980209B2, “Consumables” (GIVAUDAN SA, priority 2007, dated 2024)

Columns and labels:
[1] = tested on: perceived sweet taste (panel); test: Small panel ranking of 5-20 ppm HDG in water (Example 1d); format: in vivo, human; conditions: for Rank and taste: rank from least sweet to most sweet
Protocol: Further three small panel testings were performed. HDG samples were prepared in concentrations of 5 ppm, 10 ppm, 15 ppm, and 20 ppm in water. All the samples were coded (presented blind) and given to the panel in random order. The panel was also presented with sucrose solutions for comparison. The panel was asked to taste each sample and rank the samples from the least sweet to most sweet.

[2] = tested on: perceived sweetness (sweet sensitive panelists); test: Ranking test with R-index, sweetness enhancement by 10 ppm HDG in 7% sucrose (Example 12); format: in vivo, human; conditions: for R-index: critical value 37.1 to 62.9%
Protocol: The degree of sweetness enhancement of HDG was tested by determining the isointensity of the HDG-enhanced samples in comparison to sucrose samples. The samples contained 10 ppm HDG in 7% sucrose (HDG-10), and various sucrose solutions of different concentration in water (7%, 8%, 9%, and 10%).
15 ml of each sample was presented at room temperature and in random order to 20 sweet sensitive panelists. In two replications over 1 session, panelists were asked to compare and rank the samples from least sweet to most sweet. The critical value indicates the range wherein the difference of two samples is non-significant.

[3] = tested on: perceived sweetness (panelists); test: Sweetness of HDG in a cola beverage (Example 14); format: in vivo, human; conditions: 20 ppm HDG in cola beverage sweetened with 7% sucrose
From the text: 20 ppm of HDG in a cola beverage sweetened with 7% sucrose was compared to control samples (cola without HDG and sweetened with 7 or 9% sucrose) by 9 panelists.
Panelists were instructed to taste and compare the samples in their sweetness intensity and profile.

[4] = tested on: perceived sweet taste (sweet sensitive panelists); test: Ranking test with R-index, isointensity of 20 ppm HDG in 7% sucrose (Example 2b); format: in vivo, human; conditions: for R-index: critical values 37.11-62.89%
From the text: Panels consisted of 20 sweet sensitive subjects and samples were presented in 2 replications over 1 session. Panelists were presented with 7%, 8%, 9% and 10% sucrose solutions in water and a fifth sample of 20 ppm HDG in 7% sucrose in random order. Subjects were asked to rank the samples from low to high with respect to perceived sweet taste.

[5] = tested on: perceived sweet taste (sweet sensitive panelists); test: Ranking test with R-index, isointensity of 15 and 20 ppm HDG in water (Example 1d); format: in vivo, human; conditions: for R-index: critical values 37.26-62.74%
Protocol: All examples were performed with sweet sensitive panelists able to detect at least 0.5% of sucrose or less, unless stated otherwise. The concentration detectable by the average consumer will be higher. The results were obtained using 20 panelists in two replications.
The sucrose concentration that tastes isointense in sweetness to HDG was determined using samples of 15 ppm and 20 ppm, each of which was directly compared to a sucrose sample (sucrose solutions of 0.5%, 1%, 1.5% and 2% concentration). Fifteen milliliters of each blinded sample was presented, at room temperature, in random order to 20 sweet sensitive panelists. In two replications (over 1 session), panelists were asked to rank the solutions, from least sweet to most sweet. The data was subjected to an R-index analysis.

sucrose sweetness = conditions: NHDC at its sweetness detection threshold; Kroeze et al., Chem. Senses 2000; cited from earlier work
[6] = tested on: perceived sweet taste (sweet sensitive panelists); test: Ranking test of 2 ppm NHDC in water (Example 7); format: in vivo, human
[7] = tested on: perceived sweetness (sweet sensitive panelists); test: Determined isointensities to sucrose solutions of the optional enhancers; format: in vivo, human
Protocol: The sweetness detection threshold for trilobatin, HDG and optional enhancers were determined by the applicant.
The sweetness detection threshold varies somewhat in different individuals. For example, some individuals are able to detect the sweetness of sucrose in a very low concentration of 0.4%, others need at least 0.7%, or at least 1% or even more. All examples were performed with sweet sensitive panelists able to detect at least 0.5% of sucrose or less. The concentration detectable by the average consumer will therefore be higher.

[8] = tested on: perceived sweetness (sweet sensitive panelists); test: Sweetness rating on generalized labeled magnitude scale (Example 6); format: in vivo, human; conditions: 1% sucrose in water, test run 3
From the text: Further, panelists were asked to rate each presented sample for sweetness using the generalized labeled magnitude scale (0=no sweetness; […] of any kind). The rating data was compared using the paired t-test.

[9] = 10 ppm HDG in 7% sucrose vs 7% sucrose
[10] = 10 ppm HDG in 7% sucrose vs 8% sucrose
[11] = 10 ppm HDG in 7% sucrose vs 9% sucrose
[12] = 10 ppm HDG in 7% sucrose vs 10% sucrose

COc1ccc(CCC(=O)c2c(O)cc(O[C@@H]3O[C@H](CO)[C@@H](O)[C@H](O)[C@H]3O)cc2O)cc1O [HDG, 1-[4-(-D-glucopyranosyloxy)-2,6-dihydroxyphenyl]-3-(3-hydroxy-4-methoxyphenyl)-1-propanone]
isointensity to sucrose ([1]; 5 ppm HDG in water): 0% sucrose (water)
Rank and taste ([1]; 5 ppm HDG in water): 1 - not sweet
Rank and taste ([1]; 10 ppm HDG in water): 2 - very slightly sweet
Rank and taste ([1]; 15 ppm HDG in water): 3 - slightly sweet
isointensity to sucrose ([1]; 20 ppm HDG in water): 1 % sucrose
Rank and taste ([1]; 20 ppm HDG in water): 4 - sweet
sweetness threshold of HDG detected by sweet sensitive individuals ([1]; in water): about 10 ppm
added sucrose sweetness intensity ([2]; 10 ppm HDG in 7% sucrose): about 1 ° Brix
expected isointensity to sucrose assuming a merely additive effect ([2]; 10 ppm HDG in 7% sucrose): 7.5%
isointensity to sucrose ([2]; 10 ppm HDG in 7% sucrose): 8 % sucrose
sweetness HDG sample [2, 9]: sweeter
R-index [2, 9]: 75.2%
sweetness HDG sample [2, 10]: isosweet
R-index [2, 10]: 37.5%
sweetness HDG sample [2, 11]: less
R-index [2, 11]: 10.7%
sweetness HDG sample [2, 12]: less
R-index [2, 12]: 0.6%
sweetness compared to 9% sucrose cola control [3]: not as sweet
sweetness compared to 7% sucrose cola control ([3]; all 9 panelists): significantly sweeter
taste profile ([3]; similar to the sucrose controls in sweetness onset and duration): non-lingering
added sucrose sweetness intensity ([4]; 20 ppm HDG in 7% sucrose): 1.5-2 ° Brix
R-index ([4]; 20 ppm HDG in 7% sucrose vs 7% sucrose): 94.8%
R-index ([4]; 20 ppm HDG in 7% sucrose vs 8% sucrose): 62.6%
R-index ([4]; 20 ppm HDG in 7% sucrose vs 9% sucrose): 46.0%
R-index ([4]; 20 ppm HDG in 7% sucrose vs 10% sucrose): 6.8%
sample sweetness (7% sucrose + 20 ppm HDG) ([4]; vs 7% sucrose solution): Sweeter
sample sweetness (7% sucrose + 20 ppm HDG) ([4]; vs 8% sucrose solution): Isosweet
sample sweetness (7% sucrose + 20 ppm HDG) ([4]; vs 9% sucrose solution): Isosweet
sample sweetness (7% sucrose + 20 ppm HDG) ([4]; vs 10% sucrose solution): Less sweet
R-index ([5]; 15 ppm HDG in water vs 0.5% sucrose): 85%
R-index ([5]; 15 ppm HDG in water vs 1.0% sucrose): 31%
R-index ([5]; 15 ppm HDG in water vs 1.5% sucrose): 10%
R-index ([5]; 15 ppm HDG in water vs 2.0% sucrose): 1%
sample sweetness (HDG, 15 ppm) ([5]; 15 ppm in water vs 0.5% sucrose solution): sweeter
sample sweetness (HDG, 15 ppm) ([5]; 15 ppm in water vs 1.0% sucrose solution): less sweet
sample sweetness (HDG, 15 ppm) ([5]; 15 ppm in water vs 1.5% sucrose solution): less sweet
sample sweetness (HDG, 15 ppm) ([5]; 15 ppm in water vs 2.0% sucrose solution): less sweet
R-index ([5]; 20 ppm HDG in water vs 0.5% sucrose): 92%
R-index ([5]; 20 ppm HDG in water vs 1.0% sucrose): 51%
R-index ([5]; 20 ppm HDG in water vs 1.5% sucrose): 33%
R-index ([5]; 20 ppm HDG in water vs 2.0% sucrose): 4%
sample sweetness (HDG, 20 ppm) ([5]; 20 ppm in water vs 0.5% sucrose solution): Sweeter
sample sweetness (HDG, 20 ppm) ([5]; 20 ppm in water vs 1.0% sucrose solution): Isosweet
sample sweetness (HDG, 20 ppm) ([5]; 20 ppm in water vs 1.5% sucrose solution): Less sweet
sample sweetness (HDG, 20 ppm) ([5]; 20 ppm in water vs 2.0% sucrose solution): Less sweet

COc1ccc(CCC(=O)c2c(O)cc(O[C@@H]3O[C@H](CO)[C@@H](O)[C@H](O)[C@H]3O[C@@H]3O[C@@H](C)[C@H](O)[C@@H](O)[C@H]3O)cc2O)cc1O [NHDC, Neohesperidin dihydrochalcone]
enhancement of sucrose sweetness (sucrose sweetness): does not enhance sucrose sweetness
isointensity to sucrose ([6]; 2 ppm NHDC in water): 0.5 % sucrose
NHDC sample sweetness ([6]; 2 ppm NHDC in water vs 0.5% sucrose solution): isosweet
NHDC sample sweetness ([6]; 2 ppm NHDC in water vs 1% sucrose solution): less sweet
R-index ([6]; 2 ppm NHDC in water vs 1% sucrose, critical values 35.39-64.61%): 5%

C[C@@H]1O[C@@H](O[C@H]2[C@H](Oc3cc(O)c(C(=O)CCc4ccc(O)cc4)c(O)c3)O[C@H](CO)[C@@H](O)[C@@H]2O)[C@H](O)[C@H](O)[C@H]1O [naringin dihydrochalcone, 1-[4-[[2-O-(6-Deoxy-alpha-L-mannopyranosyl)-beta-D-glucopyranosyl]oxy]-2,6-dihydroxyphenyl]-3-(4-hydroxyphenyl)-1-propanone]
isointensity to sucrose ([7]; 45 ppm naringin dihydrochalcone): 0.5 % sucrose
isointensity to sucrose ([7]; 60 ppm naringin dihydrochalcone): 1.25 % sucrose

C=C1C[C@@]23CC[C@H]4[C@@](C)(CCC[C@@]4(C)C(=O)O[C@@H]4O[C@H](CO)[C@@H](O)[C@H](O)[C@H]4O)[C@@H]2CC[C@]1(O[C@@H]1O[C@H](CO)[C@@H](O)[C@H](O[C@@H]2O[C@H](CO)[C@@H](O)[C@H](O)[C@H]2O)[C@H]1O[C@@H]1O[C@H](CO)[C@@H](O)[C@H](O)[C@H]1O)C3 [rebaudioside A, Rebaudioside A]
isointensity to sucrose ([7]; 20 ppm rebaudioside A): 0.75 % sucrose

C=C1C[C@@]23CC[C@H]4[C@@](C)(CCC[C@@]4(C)C(=O)O[C@@H]4O[C@H](CO)[C@@H](O)[C@H](O)[C@H]4O)[C@@H]2CC[C@]1(O[C@@H]1O[C@H](CO)[C@@H](O)[C@H](O)[C@H]1O[C@@H]1O[C@H](CO)[C@@H](O)[C@H](O)[C@H]1O)C3 [stevioside, Stevioside]
isointensity to sucrose ([7]; 30 ppm stevioside): 0.5 % sucrose
isointensity to sucrose ([7]; 40 ppm stevioside): 0.75 % sucrose

OC[C@H]1O[C@@](CO)(O[C@H]2O[C@H](CO)[C@@H](O)[C@H](O)[C@H]2O)[C@@H](O)[C@@H]1O [sucrose, alpha-D-glucopyranosyl-(1→2)-beta-D-fructofuranose]
sweetness rating, generalized labeled magnitude scale (0=no sweetness; 10=strongest imaginable sensation) [8]: 0.72 ± 0.06
